From publication PMC10924921, “Mi-2β promotes immune evasion in melanoma by activating EZH2 methylation” (Nature Communications, 2024)

Assays:
[1] = target: T1, RSK1(Kin.Dom.1-N-terminal) (Homo sapiens, UniProt Q15418); assay: biochemical; set-up: KINOMEscan active-site competition binding panel (468 kinase assays), per cent of control at 1000 nM; settings: KINOMEscan per cent of control (binding competition); read-out: Percent Control
T1 construct: gene RPS6KA1; Kin.Dom.1-N-terminal
Text: (§1) Figure S7 / Percent Control

LZK = target: T2, LZK (Homo sapiens, UniProt O43283); assay: biochemical; set-up: KINOMEscan active-site competition binding panel (468 kinase assays), per cent of control at 1000 nM; settings: KINOMEscan per cent of control (binding competition); read-out: Percent Control
T2 construct: gene MAP3K13
T2 sequence (O43283 whole entry): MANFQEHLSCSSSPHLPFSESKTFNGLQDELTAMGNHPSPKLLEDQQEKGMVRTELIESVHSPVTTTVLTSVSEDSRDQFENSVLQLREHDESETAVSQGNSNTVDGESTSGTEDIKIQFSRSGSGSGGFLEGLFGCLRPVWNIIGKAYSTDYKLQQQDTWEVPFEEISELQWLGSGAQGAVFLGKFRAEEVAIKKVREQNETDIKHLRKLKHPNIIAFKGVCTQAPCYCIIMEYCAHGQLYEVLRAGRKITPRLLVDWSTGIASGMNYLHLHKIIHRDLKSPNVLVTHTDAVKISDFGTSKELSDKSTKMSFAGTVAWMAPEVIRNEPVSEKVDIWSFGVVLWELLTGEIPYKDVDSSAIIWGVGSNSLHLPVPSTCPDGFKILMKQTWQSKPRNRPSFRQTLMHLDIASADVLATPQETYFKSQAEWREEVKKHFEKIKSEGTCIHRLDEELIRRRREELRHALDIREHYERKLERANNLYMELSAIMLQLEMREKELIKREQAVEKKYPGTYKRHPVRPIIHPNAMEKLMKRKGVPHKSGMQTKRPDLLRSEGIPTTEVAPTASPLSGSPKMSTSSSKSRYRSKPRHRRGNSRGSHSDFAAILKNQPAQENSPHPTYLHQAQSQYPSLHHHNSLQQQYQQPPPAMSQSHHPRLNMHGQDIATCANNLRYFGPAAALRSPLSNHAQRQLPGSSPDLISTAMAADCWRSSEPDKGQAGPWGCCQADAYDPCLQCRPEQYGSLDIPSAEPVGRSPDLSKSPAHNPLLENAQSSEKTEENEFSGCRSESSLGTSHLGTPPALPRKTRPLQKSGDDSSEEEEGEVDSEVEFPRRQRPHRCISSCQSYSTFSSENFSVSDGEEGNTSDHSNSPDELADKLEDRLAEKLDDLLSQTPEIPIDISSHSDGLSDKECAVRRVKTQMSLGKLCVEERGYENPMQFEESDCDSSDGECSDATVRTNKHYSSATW
Text: as §1

[2] = target: T3, ABL1(E255K)-phosphorylated (Homo sapiens, UniProt P00519, E255K); assay: biochemical; set-up: KINOMEscan active-site competition binding panel (468 kinase assays), per cent of control at 1000 nM; settings: KINOMEscan per cent of control (binding competition); read-out: Percent Control
T3 construct: phosphorylated
T3 sequence (P00519 whole entry E255K): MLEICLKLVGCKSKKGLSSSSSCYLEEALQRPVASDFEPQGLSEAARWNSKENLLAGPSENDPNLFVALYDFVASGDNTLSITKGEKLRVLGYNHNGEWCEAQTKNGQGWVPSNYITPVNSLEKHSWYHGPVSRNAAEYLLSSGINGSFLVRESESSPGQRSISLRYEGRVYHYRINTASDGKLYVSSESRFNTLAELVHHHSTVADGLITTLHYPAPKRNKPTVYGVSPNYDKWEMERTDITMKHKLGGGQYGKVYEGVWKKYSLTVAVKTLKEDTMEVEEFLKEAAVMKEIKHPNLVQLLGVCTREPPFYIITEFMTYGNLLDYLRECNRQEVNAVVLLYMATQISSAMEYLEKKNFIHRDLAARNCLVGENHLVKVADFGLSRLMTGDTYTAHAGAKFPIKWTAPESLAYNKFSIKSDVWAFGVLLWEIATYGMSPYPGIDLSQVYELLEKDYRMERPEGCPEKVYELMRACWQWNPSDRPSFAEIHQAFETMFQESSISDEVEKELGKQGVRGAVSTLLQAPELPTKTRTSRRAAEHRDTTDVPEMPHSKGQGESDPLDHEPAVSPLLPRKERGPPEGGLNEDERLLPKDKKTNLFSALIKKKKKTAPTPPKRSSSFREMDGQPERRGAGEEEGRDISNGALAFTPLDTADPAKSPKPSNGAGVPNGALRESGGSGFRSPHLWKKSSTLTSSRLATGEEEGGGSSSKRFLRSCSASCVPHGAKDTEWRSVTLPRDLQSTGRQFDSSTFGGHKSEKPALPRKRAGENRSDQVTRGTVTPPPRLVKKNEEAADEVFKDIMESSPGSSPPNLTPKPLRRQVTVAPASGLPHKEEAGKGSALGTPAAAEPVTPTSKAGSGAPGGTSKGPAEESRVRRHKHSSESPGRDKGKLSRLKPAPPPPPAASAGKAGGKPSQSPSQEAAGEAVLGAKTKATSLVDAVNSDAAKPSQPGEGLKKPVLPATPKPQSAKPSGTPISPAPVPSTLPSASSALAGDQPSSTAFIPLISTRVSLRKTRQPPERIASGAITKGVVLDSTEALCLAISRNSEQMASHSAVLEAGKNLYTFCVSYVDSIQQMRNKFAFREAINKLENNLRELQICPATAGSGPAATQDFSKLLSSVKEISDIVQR
Text: as §1

PDPK1 = PDPK1 (Homo sapiens, UniProt O15530); assay: biochemical; set-up: KINOMEscan active-site competition binding panel (468 kinase assays), per cent of control at 1000 nM; settings: KINOMEscan per cent of control (binding competition); read-out: Percent Control
Text: as §1

FAK = target: T4, FAK (Homo sapiens, UniProt Q05397); assay: biochemical; set-up: KINOMEscan active-site competition binding panel (468 kinase assays), per cent of control at 1000 nM; settings: KINOMEscan per cent of control (binding competition); read-out: Percent Control
T4 construct: gene PTK2
Text: as §1

NDR1 = target: T5, NDR1 (Homo sapiens, UniProt Q15208); assay: biochemical; set-up: KINOMEscan active-site competition binding panel (468 kinase assays), per cent of control at 1000 nM; settings: KINOMEscan per cent of control (binding competition); read-out: Percent Control
T5 construct: gene STK38
T5 sequence (Q15208 whole entry): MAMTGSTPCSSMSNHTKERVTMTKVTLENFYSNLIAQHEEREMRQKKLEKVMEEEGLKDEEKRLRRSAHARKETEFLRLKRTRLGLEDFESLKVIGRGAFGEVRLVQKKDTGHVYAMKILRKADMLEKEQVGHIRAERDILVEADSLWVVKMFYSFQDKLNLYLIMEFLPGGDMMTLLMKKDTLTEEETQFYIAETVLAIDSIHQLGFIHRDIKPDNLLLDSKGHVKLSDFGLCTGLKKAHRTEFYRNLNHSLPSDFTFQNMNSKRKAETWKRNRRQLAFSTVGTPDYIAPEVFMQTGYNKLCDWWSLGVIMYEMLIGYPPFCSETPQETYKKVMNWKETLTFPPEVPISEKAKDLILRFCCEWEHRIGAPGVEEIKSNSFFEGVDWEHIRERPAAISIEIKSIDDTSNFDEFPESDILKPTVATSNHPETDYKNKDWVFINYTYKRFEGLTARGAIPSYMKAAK
Text: as §1

PHKG1 = PHKG1 (Homo sapiens, UniProt Q16816); assay: biochemical; set-up: KINOMEscan active-site competition binding panel (468 kinase assays), per cent of control at 1000 nM; settings: KINOMEscan per cent of control (binding competition); read-out: Percent Control
Text: as §1

WEE1 = WEE1 (Homo sapiens, UniProt P30291); assay: biochemical; set-up: KINOMEscan active-site competition binding panel (468 kinase assays), per cent of control at 1000 nM; settings: KINOMEscan per cent of control (binding competition); read-out: Percent Control
Text: as §1

ZAK = target: T6, ZAK (Homo sapiens, UniProt Q9NYL2); assay: biochemical; set-up: KINOMEscan active-site competition binding panel (468 kinase assays), per cent of control at 1000 nM; settings: KINOMEscan per cent of control (binding competition); read-out: Percent Control
T6 construct: gene MAP3K20
Text: as §1

CDC2L2 = target: T7, CDC2L2 (Homo sapiens, UniProt Q9UQ88); assay: biochemical; set-up: KINOMEscan active-site competition binding panel (468 kinase assays), per cent of control at 1000 nM; settings: KINOMEscan per cent of control (binding competition); read-out: Percent Control
T7 construct: gene CDK11A
T7 sequence (Q9UQ88 whole entry): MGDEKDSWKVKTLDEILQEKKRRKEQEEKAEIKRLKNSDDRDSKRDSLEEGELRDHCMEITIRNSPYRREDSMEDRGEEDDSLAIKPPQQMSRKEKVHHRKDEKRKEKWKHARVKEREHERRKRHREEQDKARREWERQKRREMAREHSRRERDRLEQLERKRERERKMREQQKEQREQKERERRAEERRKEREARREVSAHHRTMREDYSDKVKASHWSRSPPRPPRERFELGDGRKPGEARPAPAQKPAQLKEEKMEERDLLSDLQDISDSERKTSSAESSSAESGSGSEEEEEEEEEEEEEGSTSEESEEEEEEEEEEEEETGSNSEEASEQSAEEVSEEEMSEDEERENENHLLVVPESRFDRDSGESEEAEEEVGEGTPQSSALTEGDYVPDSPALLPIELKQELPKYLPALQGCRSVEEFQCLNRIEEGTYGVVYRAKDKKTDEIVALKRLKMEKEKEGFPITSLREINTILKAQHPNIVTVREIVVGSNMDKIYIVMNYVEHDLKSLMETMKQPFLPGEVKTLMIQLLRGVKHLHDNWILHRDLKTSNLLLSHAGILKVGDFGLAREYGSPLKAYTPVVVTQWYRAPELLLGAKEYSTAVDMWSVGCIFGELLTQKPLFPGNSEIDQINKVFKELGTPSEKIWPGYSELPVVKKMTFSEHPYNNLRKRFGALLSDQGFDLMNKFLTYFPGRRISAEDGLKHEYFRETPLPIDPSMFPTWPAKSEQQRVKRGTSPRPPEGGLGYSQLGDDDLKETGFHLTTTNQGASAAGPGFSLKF
Text: as §1

AURKC = AURKC (Homo sapiens, UniProt Q9UQB9); assay: biochemical; set-up: KINOMEscan active-site competition binding panel (468 kinase assays), per cent of control at 1000 nM; settings: KINOMEscan per cent of control (binding competition); read-out: Percent Control
Sequence of AURKC (Q9UQB9 whole entry): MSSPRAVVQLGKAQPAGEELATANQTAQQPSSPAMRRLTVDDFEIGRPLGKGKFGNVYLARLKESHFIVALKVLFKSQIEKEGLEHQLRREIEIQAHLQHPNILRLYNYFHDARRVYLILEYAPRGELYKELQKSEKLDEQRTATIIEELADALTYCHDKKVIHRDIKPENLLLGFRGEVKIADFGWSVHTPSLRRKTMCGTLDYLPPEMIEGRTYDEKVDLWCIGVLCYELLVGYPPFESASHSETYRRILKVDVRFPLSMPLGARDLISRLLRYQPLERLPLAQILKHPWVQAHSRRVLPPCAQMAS
Text: as §1

LIMK1 = LIMK1 (Homo sapiens, UniProt P53667); assay: biochemical; set-up: KINOMEscan active-site competition binding panel (468 kinase assays), per cent of control at 1000 nM; settings: KINOMEscan per cent of control (binding competition); read-out: Percent Control
Sequence of LIMK1 (P53667 whole entry): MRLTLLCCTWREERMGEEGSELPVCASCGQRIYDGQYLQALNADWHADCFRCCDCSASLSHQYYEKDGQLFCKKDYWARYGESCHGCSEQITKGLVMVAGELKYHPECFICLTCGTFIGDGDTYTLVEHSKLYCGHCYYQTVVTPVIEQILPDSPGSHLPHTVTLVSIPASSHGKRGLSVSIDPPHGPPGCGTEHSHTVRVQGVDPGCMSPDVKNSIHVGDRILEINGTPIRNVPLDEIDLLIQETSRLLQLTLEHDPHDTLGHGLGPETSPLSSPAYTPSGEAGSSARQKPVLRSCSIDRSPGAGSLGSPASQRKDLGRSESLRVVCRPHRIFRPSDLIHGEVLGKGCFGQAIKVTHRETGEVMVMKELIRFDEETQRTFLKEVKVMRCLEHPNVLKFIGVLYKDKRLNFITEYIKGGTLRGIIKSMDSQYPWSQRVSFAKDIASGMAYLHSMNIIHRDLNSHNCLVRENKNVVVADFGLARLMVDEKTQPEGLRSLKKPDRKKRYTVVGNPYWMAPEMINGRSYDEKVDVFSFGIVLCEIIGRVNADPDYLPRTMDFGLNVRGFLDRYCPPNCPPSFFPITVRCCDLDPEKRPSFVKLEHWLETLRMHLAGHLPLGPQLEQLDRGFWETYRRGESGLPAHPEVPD
Text: as §1

[3] = tested on: Cxcl9 and Cxcl10 mRNA in B16F10 cells; assay: RT-qPCR of Mi-2β target genes in treated cells; assay type: cell-based, mouse
Protocol: (§2) Z36-MP5 was chosen for further validation and experimental therapeutics in vivo. […] To investigate its cellular inhibitory activity, B16F10 cells were treated with Z36-MP5 at concentrations ranging from 5 to 100 µM, and the activation of Mi-2β target genes measured by RT-qPCR. […] In addition, the pharmacokinetic properties of Z36-MP5 in Sprague-Dawley rats with administration of intraperitoneal injection dose of 1.0 mg/kg. […] To exclude any effects on the host cells, we implanted Mi-2β-null melanoma cells into C57BL6 mice and then treated the mice with Z36-MP5 accompanied by anti-PD-1 therapy.
The total RNA was extracted with QIAGEN RNeasy kit […] for cDNA synthesis with SuperScript II Reverse Transcriptase (Invitrogen). In total, 40 ng cDNA was used for quantitative real-time PCR amplification by TaqMan Gene Expression Master Mix (Thermo Fisher Scientific). The relative transcript levels were normalized with GAPDH expression. The data were calculated with the comparative CT method. Primers for RT-qPCR assays are shown in Supplementary Data 3.

Pharmacokinetics in rats = assay type: in vivo; settings: Sprague-Dawley, rat, serum, ip, intraperitoneal 1.0 mg/kg, male SD rats
Protocol: Compound Z36-MP5 was evaluated in a pharmacokinetic study in male Sprague-Dawley (SD) rats following intraperitoneal injection of Z36-MP5 at 1.0 mg/kg as a solution in 5% DMSO, 30% PEG400, and 65% corn oil. Blood was collected at 0.25, 0.5, 1, 2, 4, 8, and 24 h following intraperitoneal injection. The blood samples were placed in wet ice, and serum was collected after centrifugation. Serum samples were frozen and stored at −80 °C. The serum samples were analyzed utilizing HPLC-coupled tandem mass spectrometry. Values are calculated from arithmetic mean plasma concentrations (n = 3 rats per condition). Rats experiments were done according to protocols approved by the ethics committee review board of University of Arkansas for Medical Science and in accordance with the guidelines set forth by the US National Institutes of Health.

[4] = Tolerability: mouse weight and organ histology; assay type: in vivo; settings: 30 mg/kg/day for 2 weeks
Protocol: as §2
Supplementary Figure 8. In vitro assay for Mi-2β inhibitors. a The body weight changes of C57BL/6J mice treated with Z36-MP5 (30 mg/kg/day) for 2 weeks. Data are mean ± SEM (n=5). b H&E staining of tissues in C57BL/6J mice treated with or without Z36 -MP5 (30 mg/kg/day) for 2 weeks. […]
The growth of tumor grafts was measured. n = 5. g Mice bearing B16F10 cell s were treated with MS177 (100 mg/kg, 5 days) and then Z36 -MP5 (30 mg/kg/day) or vehicles, accompanied with anti -PD-1 antibody […]

T1 sequence (Q15418 whole entry): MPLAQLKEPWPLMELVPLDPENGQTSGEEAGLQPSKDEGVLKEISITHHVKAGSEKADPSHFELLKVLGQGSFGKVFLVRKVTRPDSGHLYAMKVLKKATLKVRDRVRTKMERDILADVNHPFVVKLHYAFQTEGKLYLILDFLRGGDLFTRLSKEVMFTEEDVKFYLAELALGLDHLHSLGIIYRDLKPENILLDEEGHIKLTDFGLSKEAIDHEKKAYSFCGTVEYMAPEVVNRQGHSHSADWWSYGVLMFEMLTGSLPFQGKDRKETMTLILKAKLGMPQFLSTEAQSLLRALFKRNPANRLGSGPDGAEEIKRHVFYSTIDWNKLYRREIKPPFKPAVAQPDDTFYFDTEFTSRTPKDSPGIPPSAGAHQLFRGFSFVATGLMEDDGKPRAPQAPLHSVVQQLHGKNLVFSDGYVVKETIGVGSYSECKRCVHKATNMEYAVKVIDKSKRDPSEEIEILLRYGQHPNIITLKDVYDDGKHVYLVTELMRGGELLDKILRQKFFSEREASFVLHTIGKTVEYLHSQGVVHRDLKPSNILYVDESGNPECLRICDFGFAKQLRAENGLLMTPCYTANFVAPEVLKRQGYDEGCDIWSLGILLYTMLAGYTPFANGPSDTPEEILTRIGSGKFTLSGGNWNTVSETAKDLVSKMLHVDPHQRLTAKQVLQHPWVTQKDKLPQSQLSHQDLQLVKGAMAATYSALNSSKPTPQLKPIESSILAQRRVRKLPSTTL

Molecule `Cn1c(=O)[nH]c2ccc(-c3cccc(C(=O)NC4CCn5ccnc5C4)c3)cc21` (centres unmarked) [Z36-MP5] has a remaining binding at 1 µM [1] of 93%, a remaining binding at 1 µM (LZK) of 63% and a remaining binding at 1 µM [2] of 79%. For the same molecule, the remaining binding at 1 µM (PDPK1) was 97%, the remaining binding at 1 µM (FAK) was 88% and the remaining binding at 1 µM (NDR1) was 81%. The remaining binding at 1 µM (PHKG1) was 90%, the remaining binding at 1 µM (WEE1) was 100% and the remaining binding at 1 µM (ZAK) was 95%. For the same molecule, the remaining binding at 1 µM (CDC2L2) was 99%, the remaining binding at 1 µM (AURKC) was 100% and the remaining binding at 1 µM (LIMK1) was 85%. The “expressions of Mi-2β target genes Cxcl9 and Cxcl10” value ([3]; 5 μM to 100 μM) was “substantial increases”, the “Mi-2β target gene expression (Cxcl9, Cxcl10 mRNA)” value ([3]; 25 µM, 24 h) was “induced Mi-2β target gene expression including Cxcl9 and Cxcl10” and the Cmax (Pharmacokinetics in rats) was 3960 ng/mL. For the same molecule, the half-life (Pharmacokinetics in rats; read-out: half-life T1/2 (converted)) was 27 min and the “tolerability (mouse weight, organ tissue histological staining)” value [4] was “tolerated without significant toxicity”.
